Tests used:
[1] = system: T47D (ER+) and MDA-MB-231 (ER-) tumor-bearing nude mice; assay: Biodistribution in tumor-bearing nude mice; format: in vivo
Method: Female NMRI nude mice (Crl:NMRI-Foxn1^nu) were purchased from Charles River (Charles River Laboratories Inc., Wilmington, MA, USA) at the age of four weeks and kept in groups of four to five animals in individually ventilated cages in a twelve hours dark/light cycle, with unlimited access to water and standard chow. At the age of nine to ten weeks, one 17β-estradiol pellet per animal (0.72 mg per pellet, 3 mm diameter) with a 60-day release time (Innovative Research of America, Sarasota, FL, USA) was subcutaneously implanted on the back under isoflurane anesthesia. After three days, approximately 2–3 × 10^6 MCF-7, T47D or MDA-MB-231 tumor cells (in 50 µL PBS) were mixed with Matrigel (50 µL, BD Biosciences, Becton, Dickinson and Company, Franklin Lakes, NJ, USA) and injected subcutaneously to the back of the mice. Tumor diameters and weight of the animals were recorded five times a week. Biodistribution or imaging studies were performed three–four weeks after the inoculation of the cells.
For biodistribution experiments, nude mice bearing T47D and MDA-MB-231 tumors (n = 3, per group) were injected with ^18F-TA-Glyco-EE (2–4 MBq) under isoflurane anesthesia. After 30, 60 or 90 min, the mice were sacrificed by cervical dislocation. Blood, as well as organs and tissue from the lung, liver, kidneys, heart, spleen, brain, muscle, femur and tumors, were harvested and measured for radioactivity in the γ-counter (Wallac Wizard, PerkinElmer, Waltham, MA, USA). The samples were weighed, and the radioactivity of each tissue sample was calculated as a percentage of the total injected dose per gram tissue (%ID/g).

ER+ MCF-7 tumor slices = assay: In vitro autoradiography of MCF-7 tumor slices; format: binding, human; details: 60 min, room temperature, with or without E2 (72 µM)
Method: MCF-7, MDA-MB231 and T47D tumors grown in nude mice were collected and frozen in a hexane/dry ice bath (−70 °C). Tumor slices (14 µm) were prepared on a cryostat microtome HM 500 O (Microm, Walldorf, Germany), thaw-mounted on HistoBond® adhesive glass slides (Marienfeld, Lauda-Königshofen, Germany) and stored at −80 °C. For in vitro autoradiography studies, the tumor tissue sections were thawed and pre-incubated in incubation buffer (50 mM Tris HCl, 5 mM MgCl2, 0.2% bovine serum albumin (BSA), pH 7.4) at room temperature for 15 min. Then, the sections were transferred to incubation buffer containing ^18F-TA-Glyco-EE (3–5 MBq) in a total volume of 70 mL. For the determination of non-specific binding, separate sections were incubated with ^18F-TA-Glyco-EE in the presence of E2 (72 µM). After an incubation time of 60 min, the sections were washed three times with incubation buffer, followed by a short dip in ice-cold distilled water. The slices were carefully dried in a stream of warm air and finally placed on a phosphor imager screen (Fuji Imaging Plate BAS-IP SR 2025 E) overnight prior to readout (30 µm resolution) using the HD-CR-35 Bio scanner (Elysia-Raytest, Straubenhardt, Germany). […] Regions of interest were analyzed from 3–4 tumor slices from the MCF-7, MDA-MB231 and T47D tumors, and mean values of the intensity per area were calculated.

[2] = Plasma protein binding (MicroSpin G-50 columns); format: in vitro ADME; details: human plasma, 10 min, 37 °C
Method: MicroSPin G-50 columns (Cytiva, Merck KGaA, Darmstadt, Germany) were preconditioned according to the manufacturer’s protocol and the experiment was performed as follows. In brief, an aliquot of the tracer (1 µL, approx. 250 kBq) was added to NaCl (0.9%, 200 µL, negative control) or human plasma (200 µL) and incubated for 10 min at 37 °C. A sample from the plasma or negative control (40 µL) was carefully added to the resin, and the column was placed in an Eppendorf tube. After centrifugation (2 min, 2000× g), the eluate and the resin were collected separately. Both were measured for radioactivity using a γ-counter (Wallac Wizard, PerkinElmer, Waltham, MA, USA), and the radioactivity eluted from the resin was calculated as a percentage of the total amount of radioactivity. The determination of plasma protein binding was performed twice in duplicate.

ER+ MCF-7 cells = assay: Cellular uptake assay in ER+ cells; format: cell-based, human
Method: One day prior to the experiment, MCF-7 and MDA-MB-231 cells were seeded in 24-well plates (350,000 cells/well). The cells were washed once with cell medium. The cells were incubated with the respective radiotracer in cell medium (510 µL) for 10, 20, 30, 60, 90, 120 min at 37 °C in the absence and presence of estradiol (E2, final concentration of 72 µM). After incubation, the plates were set on ice and washed with ice-cold PBS twice, following cell lysis and detachment with NaOH (0.1 M, 750 µL, 37 °C). The cells were transferred to counting tubes, and the radioactivity was measured using a γ-counter (Wallac Wizard, PerkinElmer, Waltham, MA, USA). The protein concentration of each well was determined in duplicate using Bradford reagent (Bio-Rad Laboratories GmbH, Feldkirchen, Germany). The cellular uptake assay was performed in 2–4 independent experiments, each performed in quadruplicate for each time point.

**Q.** With CC(=O)OC1C(C[18F])OC(n2cc(C3(O)CCC4C5CCc6cc(O)ccc6C5CCC43C)nn2)C(OC(C)=O)C1OC(C)=O (stereo not shown) [^18F-TA-Glyco-EE] as the compound, how does the “Uptake in MDA-MB-231 tumors” value ([1]; 30 min p.i.) read?
**A.** 0.9 %ID/g

**Q.** What about the “Uptake in T47D tumors” value ([1]; 30 min p.i.) of the same compound?
**A.** 1.0 %ID/g

**Q.** What about the Uptake in intestine ([1]; 30 min p.i.) of the same compound?
**A.** 10 %ID/g

**Q.** What about the Uptake in liver ([1]; 30 min p.i.) of the same compound?
**A.** 13 %ID/g

**Q.** What about the “Tumor uptake ER+ T47D versus ER- MDA-MB-231” value ([1]; 60 min and 90 min p.i., multiple t-test) of the same compound?
**A.** statistically significant differences

**Q.** And the Uptake in liver ([1]; 90 min p.i.)?
**A.** 1.2 %ID/g

**Q.** And the “Uptake in blood and all other non-target organs” value ([1]; all time points (30, 60, 90 min p.i.))?
**A.** low

**Q.** And the “Uptake in T47D or MDA-MB-231 tumors” value ([1]; as summarised in the discussion)?
**A.** < 1 %ID/g

**Q.** And the “Uptake in liver and intestine” value ([1]; decreasing over 90 min)?
**A.** less than 3 %ID/g

**Q.** And the “Binding to MCF-7 tumor sections (autoradiography)” value (ER+ MCF-7 tumor slices)?
**A.** high specific binding

**Q.** And the “Plasma Protein Binding” value [2]?
**A.** 79 ± 1%

**Q.** And the “Cellular uptake relative to ^18F-PEG-EE and ^18F-Glyco-EE” value (ER+ MCF-7 cells; ER+ MCF-7 cells)?
**A.** 10 fold

**Q.** And the “Cellular uptake in MCF-7 cells” value (ER+ MCF-7 cells; after 60 min, 37 °C, absence of E2)?
**A.** 270 %/mg

Source: PMC11311842, “Radiosynthesis and Preclinical Evaluation of ^18F-Labeled Estradiol Derivatives with Different Lipophilicity for PET Imaging of Breast Cancer” (Cancers, 2024)
